Measured values from article PMC12186257, “Serendipitous and Systematic Chemoproteomic Discovery of MBLAC2, HINT1, and NME1‑4 Inhibitors from Histone Deacetylase-Targeting Pharmacophores” (ACS Chemical Biology, 2025).
Where two headings read alike, the source gives them in different places. Each block holds one compound with its values, some of them ahead of it.

Tests used:
[1] = test system: HeLa cells; assay: clathrin-mediated endocytosis of fluorescently labeled transferrin; format: cell-based
Experimental: To test this hypothesis, we measured clathrin-mediated endocytosis of fluorescently labeled transferrin (TF) in the presence and absence of MBLAC2 inhibitors.
CME of transferrin and confocal microscopy analyses.For transferrin uptake experiments HeLa cells were seeded on Matrigel-coated coverslips, and incubated with 0.1 % DMSO, or with 100 µM dynasore, 20 µM KV50, 2 µM KV65, or 2 µM KV79 in media containing 10% FCS at 37°C for 20 h.

[2] = test system: compound-binding proteins such as HDACs, MBLAC2, ISOC1/2, ALDH2, and GATD3A; assay: chemoproteomic competition assay, proteome-wide target binding profile; set-up: species or system human; settings: dose-dependent competition
Experimental: (§1) MBLAC2 is a metalloenzyme predicted to harbor one or two Zn^2+ ions in its active site. […] In this assay, compounds of interest are incubated at increasing concentrations with a mixture of lysates of MV4–11 and SW620 cells. The compound-treated lysates are then mixed with bead-immobilized hydroxamic acid-containing compounds iA, iC, and iQ (immobilized Quisinostat), which pull down compound-binding proteins such as HDACs, MBLAC2, ISOC1/2, ALDH2, and GATD3A (Figure a) that can be identified and quantified by mass spectrometry (MS). Proteins targeted by the library compounds in a preincubation step are prevented from being pulled down by the immobilized probes, leading to a dose-dependent reduction in MS signal. Initially, 12 metal-chelating compounds were profiled at two concentrations (10 μM and 100 μM) (Figure S3).
(§2) Chemoproteomic competition assays
Sample preparation. For the MBLAC2 and HDAC inhibitor competition assay, the generation of affinity matrices, lysate generation, pulldown assay, and sample preparation were performed as described in detail in REF1. For the kinobeads assay, the generation of affinity matrices, lysate generation, pulldown assay, and sample preparation were performed as described in detail in REF2.
(§3) LC-MS/MS. The different sample types were measured with different LC-MS/MS settings. MBLAC2 2-dose competition assays were measured with the Lumos1 setup, MBLAC2 9-dose competition assays were measured with the Lumos2 setup, and kinobeads assays were measured with the Eclipse setup.
Peptides were analyzed via LC–MS/MS on a Dionex Ultimate3000 nano HPLC coupled to either one of two Orbitrap Fusion Lumos mass spectrometers, or to an Orbitrap Eclipse mass spectrometer, operated via the Thermo Scientific Xcalibur software.
In the all setups, peptides were loaded on a trap column (100 μm × 2 cm, packed in-house with Reprosil-Gold C18 ODS-3 5 μm resin, Dr. Maisch, Ammerbuch) and washed with 5 μL/min solvent A (0.1% formic acid in HPLC grade water) for 10 min. Peptides were then separated on an analytical column (75 μm × 40 cm, packed in-house with Reprosil-Gold C18 3μm resin, Dr. Maisch, Ammerbuch) using a 50 min gradient ranging from 4 to 32% solvent B (0.1% formic acid, 5% DMSO in acetonitrile) in solvent A (0.1% formic acid, 5% DMSO in HPLC grade water) at a flow rate of 300 nL/min.
The mass spectrometers were operated in data-dependent mode, automatically switching between MS1 and MS2 spectra. MS1 spectra were acquired over a mass-to-charge (m/z) range of 360–1300 m/z at a resolution of 60,000 (at m/z 200) in the Orbitrap using a maximum injection time of 50 ms and an automatic gain control (AGC) target value of 4e5.
In Lumos settings, up to 12 peptide precursors were isolated in (isolation width of 1.2 Th for Lumos1 and 1.7 for Lumos2, maximum injection time of 75 ms, AGC value of 1e5 for Lumos1 and 2e5 for Lumos2), fragmented by HCD using 30% normalized collision energy (NCE) and analyzed in the Orbitrap at a resolution of 15,000 (Lumos2) or 30,000 (Lumos1). The dynamic exclusion duration of fragmented precursor ions was set to 20 s (Lumos1) or 30 s (Lumos2). In Eclipse measurements, a cycle time of 2 s was chosen. Peptides were isolated in the quadrupole with an isolation offset of 1.2 (isolation width of 1.2 Th, maximum injection time of 54 ms, AGC target of 200%) and fragmented by […]

[3] = target: casein kinase 2 (CK2) complex proteins (CSNK2A1/3, CSNK2A2, CSNK2B, EIF3J); assay: Kinobead competition assay; format: binding, human; settings: dose-dependent competition
Text: The binding of KV-24 and KV-30 to the nucleotide-binding pocket raises the question of whether these compounds also target other nucleotide-binding proteins, such as kinases. To evaluate potential off-target effects, we performed Kinobead competition assays. This chemoproteomic approach is conceptually very similar to the one used here in that broad spectrum kinase inhibitors are immobilized on beads. […] PDE1C is a cAMP/cGMP nucleotide-binding protein that features two divalent metal cation cofactors. The hydroxamic acid moiety of KV-24 might chelate these metal cofactors, supporting the hypothesis that KV-24 binds the active site of PDE1C. […]
Given that local GTP production by NME1 and NME2 is essential for fueling dynamin-driven endocytosis, we investigated the effect of KV-50-mediated NME1/2 inhibition on fluorescent transferrin (TF) uptake in cells. HeLa cells were treated with KV-50 or known endocytosis inhibitors (Pitstop-2 and Dynasore), and surface-bound and internalized fluorescent TF were quantified. […]
LC-MS/MS. The different sample types were measured with different LC-MS/MS settings. MBLAC2 2-dose competition assays were measured with the Lumos1 setup, MBLAC2 9-dose competition assays were measured with the Lumos2 setup, and kinobeads assays were measured with the Eclipse setup. […]

[4] = target: recombinant NME1–4; assay: nucleoside diphosphate kinase activity assay (ATP production from ADP and GTP, Kinase-GLO); format: biochemical; settings: ADP (150 μM) and GTP (150 μM); range over all four enzymes; read-out: EC50 inhibition of NME1–4
Experimental: To evaluate whether KV-50 binding affects NME activity, we performed enzyme activity assays using recombinant NME1–4. The assay measured NME-catalyzed production of ATP from ADP (150 μM) and GTP (150 μM).
Nucleotide diphosphate kinase activity assays. The phosphotransfer activity of the NDPKs (NME1-4) was measured in a reaction mixture containing buffer A (20 mM Tris-HCl pH 8.0, 150 mM NaCl, and 1 mM MgCl2). All the samples were pipetted in replicates on a 384 well plate. One volume of the respective NDPK protein solution (NME1-4) was added from stock proteins (diluted in buffer a to a concentration of 300 pM) to the wells in four replicates. To these wells, one volume of the inhibitors (Six dilutions were prepared, starting with a 30 µM stock solution and then performing three-fold serial dilutions) was added and incubated at room temperature for 30 minutes. Then, one volume of the substrate mixture (300 μM GTP and 30 μM ADP) was added to the protein-inhibitor mixture-containing wells and incubated at room temperature for 30 minutes. Finally, three volumes of the Kinase-GLO reagent (Promega V6711) containing an ATP-dependent firefly luciferase were added to all the wells and five minutes later, the luminescence was measured using a plate reader. Eight different concentrations of ATP (0 - 10 μM) were used as standards for a calibration curve to calculate the amount of ATP produced by the different NDPKs.

[5] = test system: SW620 cells; assay: SW620 confluency and metabolic activity (Alamar blue assay); format: cell-based; settings: Homo sapiens, SW-620
[6] = target: T1, HDAC6 (Homo sapiens, UniProt Q9UBN7); assay: chemoproteomic competition assay (MV4-11/SW620 lysate, iA/iC/iQ beads, MS readout); format: binding; settings: two-dose (1 μM and 10 μM) assay
T1 construct: incubated at increasing concentrations with a mixture of lysates of MV4–11 and SW620 cells; endogenous in cells; host or cells: mixed lysate of MV4-11 and SW620 cells
T1 sequence (Q9UBN7 1-1215): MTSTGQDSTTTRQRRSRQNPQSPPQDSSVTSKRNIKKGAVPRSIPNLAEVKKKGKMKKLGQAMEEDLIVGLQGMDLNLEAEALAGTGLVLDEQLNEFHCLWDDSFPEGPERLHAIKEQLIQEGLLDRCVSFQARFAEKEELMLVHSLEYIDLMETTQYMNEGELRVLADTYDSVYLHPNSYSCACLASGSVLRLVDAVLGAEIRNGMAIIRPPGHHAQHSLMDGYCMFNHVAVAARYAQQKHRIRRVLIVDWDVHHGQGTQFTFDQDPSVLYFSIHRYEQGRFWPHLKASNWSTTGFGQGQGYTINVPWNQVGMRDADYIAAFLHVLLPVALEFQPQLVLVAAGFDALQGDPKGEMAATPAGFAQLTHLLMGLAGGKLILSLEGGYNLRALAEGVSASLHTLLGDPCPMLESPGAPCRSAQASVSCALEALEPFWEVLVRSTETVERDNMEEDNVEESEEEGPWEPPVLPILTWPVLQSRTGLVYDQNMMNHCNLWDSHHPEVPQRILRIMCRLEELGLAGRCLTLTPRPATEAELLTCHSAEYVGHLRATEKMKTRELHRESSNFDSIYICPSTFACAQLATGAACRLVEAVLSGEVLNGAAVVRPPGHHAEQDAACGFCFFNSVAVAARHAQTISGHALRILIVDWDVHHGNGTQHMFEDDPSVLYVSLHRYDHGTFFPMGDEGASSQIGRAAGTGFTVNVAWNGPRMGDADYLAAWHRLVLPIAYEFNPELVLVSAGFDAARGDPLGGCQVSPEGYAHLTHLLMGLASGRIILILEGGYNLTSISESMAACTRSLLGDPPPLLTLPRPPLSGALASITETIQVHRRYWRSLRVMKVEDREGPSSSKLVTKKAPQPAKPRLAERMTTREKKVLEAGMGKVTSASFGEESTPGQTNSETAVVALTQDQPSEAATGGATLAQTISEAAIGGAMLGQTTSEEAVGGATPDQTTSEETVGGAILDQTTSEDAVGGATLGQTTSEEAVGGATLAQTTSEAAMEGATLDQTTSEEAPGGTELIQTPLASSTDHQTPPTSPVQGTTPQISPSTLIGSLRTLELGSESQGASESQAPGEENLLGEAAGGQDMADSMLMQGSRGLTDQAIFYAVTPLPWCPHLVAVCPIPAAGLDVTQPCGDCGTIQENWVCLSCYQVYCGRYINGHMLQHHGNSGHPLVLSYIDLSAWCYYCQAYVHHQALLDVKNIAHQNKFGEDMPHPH
Experimental: as §1, with “Initially, 12 metal-chelating compounds were profiled at two concentrations (10 μM and 100 μM) (Figure S3).” left out
as §2
(§4) Sample preparation. […]
as §3
(§5) Peptides were analyzed via LC–MS/MS on a Dionex Ultimate3000 nano HPLC coupled to either one of two Orbitrap Fusion Lumos mass spectrometers, or to an Orbitrap Eclipse mass spectrometer, operated via the Thermo Scientific Xcalibur software. […]

[7] = target: T2, MBLAC2 (Homo sapiens, UniProt Q68D91); assay: as above; format: binding; settings: two-dose (1 μM and 10 μM) assay
T2 construct: incubated at increasing concentrations with a mixture of lysates of MV4–11 and SW620 cells; endogenous in cells; host or cells: mixed lysate of MV4-11 and SW620 cells
T2 sequence (Q68D91 1-279): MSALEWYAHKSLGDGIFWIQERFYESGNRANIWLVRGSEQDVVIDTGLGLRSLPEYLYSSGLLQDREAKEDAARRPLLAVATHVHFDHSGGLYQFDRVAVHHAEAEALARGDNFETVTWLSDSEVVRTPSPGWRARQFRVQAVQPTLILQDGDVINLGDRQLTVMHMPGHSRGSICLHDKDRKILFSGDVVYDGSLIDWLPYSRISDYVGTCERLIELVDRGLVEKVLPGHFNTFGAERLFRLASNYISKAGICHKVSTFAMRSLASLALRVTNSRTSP

[8] = test system: NMEs; settings: free nonacetylated Quisinostat; prior competition experiments; cited from earlier work
[9] = target: T3, ISOC1 (Homo sapiens, UniProt Q96CN7); assay: chemoproteomic competition assay (MV4-11/SW620 lysate, iA/iC/iQ beads, MS readout); format: binding; settings: nine-dose competition assay
T3 construct: incubated at increasing concentrations with a mixture of lysates of MV4–11 and SW620 cells; endogenous in cells; host or cells: mixed lysate of MV4-11 and SW620 cells
T3 sequence (Q96CN7 1-298): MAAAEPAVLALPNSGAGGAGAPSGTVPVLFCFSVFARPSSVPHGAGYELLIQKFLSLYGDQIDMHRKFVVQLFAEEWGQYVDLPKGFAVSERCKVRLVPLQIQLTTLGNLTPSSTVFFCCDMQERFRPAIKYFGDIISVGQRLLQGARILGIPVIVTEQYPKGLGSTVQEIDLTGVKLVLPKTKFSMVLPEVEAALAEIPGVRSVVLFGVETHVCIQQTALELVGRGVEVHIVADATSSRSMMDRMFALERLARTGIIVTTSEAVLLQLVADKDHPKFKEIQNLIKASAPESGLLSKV
Experimental: as §1, §2, §4, §3, §5
In Lumos settings, up to 12 peptide precursors were isolated in (isolation width of 1.2 Th for Lumos1 and 1.7 for Lumos2, maximum injection time of 75 ms, AGC value of 1e5 for Lumos1 and 2e5 for Lumos2), fragmented by HCD using 30% normalized collision energy (NCE) and analyzed in the Orbitrap at a resolution of 15,000 (Lumos2) or 30,000 (Lumos1). […] Peptides were isolated in the quadrupole with an isolation offset of 1.2 (isolation width of 1.2 Th, maximum injection time of 54 ms, AGC target of 200%) and fragmented by HCD with an NCE of 30% and analyzed in the Orbitrap at a resolution of 30,000. […]

Compound: Cl.O=C(NO)c1ccc(-c2nc3ccccc3c3[nH]c4ccccc4c23)cc1 [KV-50]
morphological changes ([1]; HeLa cells under TF assay conditions, similar in SW-620 and HEK293T): rounding and swelling of cells | ratio of internalized TF to surface-bound TF ([1]; HeLa cells, 20 µM, 20 h): reduced ratio of internalized TF to surface-bound TF | targets / off-targets bound [2]: bound to HINT1 and NME4 | EC50 [3]: 1000 to 2000 nM | EC50 [4]: 2000 to 5000 nM | IC50 ([5]; SW620, Alamar blue, read-out: concentration decreasing metabolic activity by 50%): 3600 nM | IC50 ([5]; read-out: concentration reducing SW620 cell confluency by 50%): 870 nM

concentration up to which no binding to HDAC6 [6]: > 10 µM | concentration up to which no binding to MBLAC2 [7]: > 10 µM
Compound: CC(=O)c1ccc(CN2c3ccccc3Sc3ccccc32)cc1 [MM-20]

Compound: Cn1cc(CNCC2CCN(c3ncc(C(=O)NO)cn3)CC2)c2ccccc21 [Quisinostat]
concentration up to which no binding to NMEs [8]: > 30 µM

EC50 [9]: 5600 nM
Compound: COc1ccc(N(C)c2nc(C)nc3ccccc23)cc1OCCCC(=O)NO [SKLB-23bb]
